Test results taken from ChEMBL document CHEMBL4145608, “Dehydrodiconiferyl Alcohol Inhibits Osteoclast Differentiation and Ovariectomy-Induced Bone Loss through Acting as an Estrogen Receptor Agonist” (J Nat Prod, 2018).
Active and inactive are the calls of the source.

Experiments:
RAW264.7 [1] = experiment: Inhibition of NF-kappaB signaling pathway in mouse RAW264.7 cells assessed as reduction in RANKL-induced IKKbeta phosphorylation at 10 to 40 uM after 30 mins by Western blot method; format: cell-based
RAW264.7 [2] = experiment: Inhibition of RANKL-induced osteoclast differentiation in mouse RAW264.7 cells assessed as decrease in size of TRAP-positive multinucleated cells after 5 days by microscopy; format: functional, cell-based
RAW264.7 [3] = experiment: Inhibition of NF-kappaB/p38 MAPK signaling pathway in mouse RAW264.7 cells assessed as reduction in RANKL-induced NFATc1 mRNA level after 24 hrs by qRT-PCR method; format: cell-based
RAW264.7 [4] = experiment: Inhibition of NF-kappaB/p38 MAPK signaling pathway in mouse RAW264.7 cells assessed as reduction in RANKL-induced TRAP mRNA level after 24 hrs by qRT-PCR method; format: cell-based
RAW264.7 [5] = experiment: Inhibition of NF-kappaB signaling pathway in mouse RAW264.7 cells assessed as reduction in RANKL-induced Akt phosphorylation at 10 to 40 uM after 30 mins by Western blot method; format: cell-based
RAW264.7 [6] = experiment: Inhibition of NF-kappaB signaling pathway in mouse RAW264.7 cells assessed as reduction in RANKL-induced IkappaB phosphorylation at 10 to 40 uM after 30 mins by Western blot method; format: cell-based
[7] = molecular target: T1, MAP kinase p38 (Mus musculus) (UniProt P47811+O08911+Q9WUI1+Q9Z1B7); experiment: Inhibition of p38 MAPK signaling pathway in mouse RAW264.7 cells assessed as reduction in RANKL-induced p38 phosphorylation at 10 to 40 uM after 30 mins by Western blot method; format: cell-based
[8] = molecular target: T1, MAP kinase p38 (Mus musculus); experiment: Inhibition of p38 MAPK signaling pathway in mouse RAW264.7 cells assessed as reduction in RANKL-induced JNK phosphorylation at 10 to 40 uM after 30 mins by Western blot method; format: cell-based
[9] = molecular target: T1, MAP kinase p38 (Mus musculus); experiment: Inhibition of p38 MAPK signaling pathway in mouse RAW264.7 cells assessed as reduction in RANKL-induced ERK phosphorylation at 10 to 40 uM after 30 mins by Western blot method; format: cell-based
RAW264.7 [10] = experiment: Inhibition of RANKL-induced osteoclast differentiation in mouse RAW264.7 cells harboring AMPKalpha1 siRNA assessed as decrease in number of TRAP-positive multinucleated cells after 5 days by microscopy; format: functional, cell-based
RAW264.7 [11] = experiment: Inhibition of RANKL-induced osteoclast differentiation in mouse RAW264.7 cells harboring AMPKalpha1 siRNA assessed as decrease in size of TRAP-positive multinucleated cells after 5 days by microscopy; format: functional, cell-based
RAW264.7 [12] = experiment: Inhibition of RANKL-induced osteoclast differentiation in mouse RAW264.7 cells harboring AMPKalpha1 siRNA assessed as decrease in TRAP mRNA level at 20 uM after 24 hrs by qRT-PCR method; format: functional, cell-based
RAW264.7 [13] = experiment: Inhibition of RANKL-induced osteoclast differentiation in mouse RAW264.7 cells harboring AMPKalpha1 siRNA assessed as decrease in c-Fos mRNA level at 20 uM after 24 hrs by qRT-PCR method; format: functional, cell-based
RAW264.7 [14] = experiment: Inhibition of RANKL-induced osteoclast differentiation in mouse RAW264.7 cells assessed as TRAP activity after 5 days in presence of PKA inhibitor H89; format: functional, cell-based
RAW264.7 [15] = experiment: Inhibition of RANKL-induced osteoclast differentiation in mouse RAW264.7 cells assessed as TRAP activity after 5 days in presence of estrogen receptor antagonist fulvestrant; format: functional, cell-based
[16] = molecular target: Calcium/calmodulin-dependent protein kinase kinase 2 (Mus musculus) (UniProt Q8C078); experiment: Inhibition of RANKL-induced CAMKKbeta phosphorylation in mouse RAW264.7 cells at 10 to 40 uM after 24 hrs by Western blot analysis; format: cell-based
Chain of Calcium/calmodulin-dependent protein kinase kinase 2 (Mus musculus) (Q8C078 2-588 limits assumed): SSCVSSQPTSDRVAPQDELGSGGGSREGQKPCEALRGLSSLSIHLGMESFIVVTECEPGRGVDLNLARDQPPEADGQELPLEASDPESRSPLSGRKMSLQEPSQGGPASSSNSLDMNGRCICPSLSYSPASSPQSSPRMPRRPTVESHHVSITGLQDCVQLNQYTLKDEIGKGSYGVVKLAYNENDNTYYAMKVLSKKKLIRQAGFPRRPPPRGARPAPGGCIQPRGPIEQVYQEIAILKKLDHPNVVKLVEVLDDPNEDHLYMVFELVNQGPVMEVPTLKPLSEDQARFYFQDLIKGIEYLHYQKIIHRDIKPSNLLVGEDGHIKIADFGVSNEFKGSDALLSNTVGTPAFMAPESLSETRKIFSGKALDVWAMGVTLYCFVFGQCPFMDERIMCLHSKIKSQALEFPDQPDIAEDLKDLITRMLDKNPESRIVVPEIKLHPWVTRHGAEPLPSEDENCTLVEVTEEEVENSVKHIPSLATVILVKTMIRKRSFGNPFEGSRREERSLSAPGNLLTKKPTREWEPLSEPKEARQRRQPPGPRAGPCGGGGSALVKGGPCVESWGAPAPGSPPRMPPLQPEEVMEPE

RAW264.7 [17] = experiment: Inhibition of RANKL-induced osteoclast differentiation in mouse RAW264.7 cells assessed as decrease in c-Fos mRNA level at 20 uM after 24 hrs in presence of ERalpha antagonist MPP by qRT-PCR method; format: functional, cell-based
RAW264.7 [18] = experiment: Inhibition of RANKL-induced osteoclast differentiation in mouse RAW264.7 cells assessed as decrease in number of TRAP-positive multinucleated cells at 20 uM after 5 days in presence of ERbeta antagonist PHTPP by microscopy; format: functional, cell-based
RAW264.7 [19] = experiment: Inhibition of RANKL-induced osteoclast differentiation in mouse RAW264.7 cells assessed as decrease in TRAP mRNA level at 20 uM after 24 hrs in presence of ERbeta antagonist PHTPP by qRT-PCR method; format: functional, cell-based
RAW264.7 [20] = experiment: Inhibition of RANKL-induced osteoclast differentiation in mouse RAW264.7 cells harboring ERalpha siRNA assessed as decrease in TRAP activity at 20 uM after 5 days by microscopy; format: functional, cell-based
RAW264.7 [21] = experiment: Inhibition of RANKL-induced osteoclast differentiation in mouse RAW264.7 cells harboring ERalpha siRNA assessed as decrease in TRAP mRNA level at 20 uM after 24 hrs by qRT-PCR method; format: functional, cell-based
RAW264.7 [22] = experiment: Inhibition of RANKL-induced osteoclast differentiation in mouse RAW264.7 cells harboring ERalpha siRNA assessed as decrease in NFATc1 mRNA level at 20 uM after 24 hrs by qRT-PCR method; format: functional, cell-based
RAW264.7 [23] = experiment: Inhibition of RANKL-induced osteoclast differentiation in mouse RAW264.7 cells harboring ERbeta siRNA assessed as decrease in size of TRAP-positive multinucleated cells at 20 uM after 5 days by microscopy; format: functional, cell-based
RAW264.7 [24] = experiment: Inhibition of RANKL-induced osteoclast differentiation in mouse RAW264.7 cells harboring ERbeta siRNA assessed as decrease in TRAP activity at 20 uM after 5 days by microscopy; format: functional, cell-based
RAW264.7 [25] = experiment: Inhibition of RANKL-induced osteoclast differentiation in mouse RAW264.7 cells harboring ERbeta siRNA assessed as decrease in TRAP mRNA level at 20 uM after 24 hrs by qRT-PCR method; format: functional, cell-based
Mus musculus [26] = experiment: Anti-osteoporotic activity in Balb/c mouse assessed as inhibition of OVX-mediated decrease in trabecular bone volume in femur at 25 to 100 mg/kg, ip administered for 4 weeks daily by microcomputed tomography; format: functional, organism-based
Mus musculus [27] = experiment: Anti-osteoporotic activity in Balb/c mouse assessed as inhibition of OVX-mediated decrease in trabecular number in femur at 25 to 100 mg/kg, ip administered for 4 weeks daily by microcomputed tomography; format: functional, organism-based
Mus musculus [28] = experiment: Anti-osteoporotic activity in Balb/c mouse assessed as decrease in OVX-induced trabecular spacing in femur at 25 to 100 mg/kg, ip administered for 4 weeks daily by microcomputed tomography; format: functional, organism-based
Mus musculus [29] = experiment: Anti-osteoporotic activity in Balb/c mouse assessed as inhibition of OVX-induced NFATc1 mRNA expression level in bone marrow at 25 to 100 mg/kg, ip administered for 4 weeks daily by qRT-PCR method; format: functional, organism-based
Mus musculus [30] = experiment: Anti-osteoporotic activity in Balb/c mouse assessed as inhibition of OVX-induced c-Fos mRNA expression level in bone marrow at 25 to 100 mg/kg, ip administered for 4 weeks daily by qRT-PCR method; format: functional, organism-based

COc1cc(C2Oc3c(OC)cc(/C=C/CO)cc3C2CO)ccc1O (stereo not given)
active: inhibition (RAW264.7 [1]) | inhibition (RAW264.7 [2]) Dose-dependent effect | inhibition (RAW264.7 [3]) Dose-dependent effect | inhibition (RAW264.7 [4]) Dose-dependent effect | inhibition (RAW264.7 [5]) | inhibition (RAW264.7 [6]) | inhibition [7] | inhibition (RAW264.7 [14]) | inhibition (RAW264.7 [18]) | inhibition (RAW264.7 [19]) | inhibition (RAW264.7 [23]) | inhibition (RAW264.7 [24]) | inhibition (RAW264.7 [25]) | inhibition (Mus musculus [26]) | inhibition (Mus musculus [27]) | Activity (Mus musculus [28]) | inhibition (Mus musculus [29]) | inhibition (Mus musculus [30])
inactive: inhibition [8] | inhibition [9] | inhibition (RAW264.7 [10]) | inhibition (RAW264.7 [11]) | inhibition (RAW264.7 [12]) | inhibition (RAW264.7 [13]) | inhibition (RAW264.7 [15]) | inhibition [16] | inhibition (RAW264.7 [17]) | inhibition (RAW264.7 [20]) | inhibition (RAW264.7 [21]) | inhibition (RAW264.7 [22])
